Here are results for 21 compounds from patent US9951088B2, “D2 receptor modulators and methods of use thereof in the treatment of diseases and disorders” (SUNOVION PHARMACEUTICALS INC., priority 2012, dated 2018).

In test [1] the target is T1, long isoform of human D2 receptor (Homo sapiens, UniProt P14416). In words: Arrestin Antagonist Assay (DRD2L PathHunter CHO-K1 cells, vs EC80 dopamine). Conditions: for Emax: CHO-K1, read-out: β-arrestin (antagonist mode) Imax.
Test [2] has as its target T1, long isoform of human D2 receptor. In words: cAMP HTRF Agonist Assay (DRD2L PathHunter CHO-K1 cells, forskolin-stimulated). Conditions: for Emax: CHO-K1, read-out: cAMP (agonist mode) Emax.
Protocol: Cell Lines: Activities of the compounds were assessed using a Chinese Hamster Ovary (CHO—K1) cell line that recombinantly expressed the long isoform of human D2 receptor (DRD2L PathHunter cells). The D2 receptor DNA sequence was modified to contain a “ProLink” at its C-terminus which allowed complementation with an “enzyme acceptor” (EA)-tagged β-arrestin protein. The recruitment of the O-arrestin by the D2 receptor led to complementation of the ProLink and EA and formation of active β-galactosidase which generated a D2-specific signal that was measured. The cAMP assay was measured in the same D2-expressing cell line. The D2 receptor inhibited cAMP formation so that the basal levels of cAMP were increased by the addition of an adenylate cyclase stimulator, forskolin.
cAMP HTRF Agonist Assay: Two days prior to testing, a vial of high density stock of DRD2L PathHunter cells was thawed, and cells were diluted into 10 mL of growth media (Ham's F12/10% HI FBS/1% PSG) and used to seed a T225 flask containing 50 mL of growth media. Cells were cultured for 2 days.
On the day of the assay, cells were dissociated in 5 mL cell dissociation buffer (enzyme free—Invitrogen) for 10-15 minutes at 37° C. Dissociated cells were diluted with 10 mL of growth media and counted. Cell counts were routinely ˜2×10^7 per T225. Cells were then pelleted at 1500 rpm for 5 min. Supernatant was aspirated, and cells were re-suspended in HBSS/20 mM Hepes, pH 7.4 to a cell density of 1×10^6/mL.
cAMP levels were determined using the Cisbio HTRF method. HRTF reagents (cAMP-HTRF acceptor fluorophore (d2) conjugate and cryptate-labeled anti-cAMP antibody) were prepared according to maunfacturers instructions. 5 μL of each were added to each well of an assay plate and incubated for 1 h at RT. The plate was then read on an Envision reader using the HTRF protocol, and data were exported for analysis.
(§1) The agonist Emax results were expressed as a percent of the dopamine control response ((measured specific response/control specific agonist response)×100) obtained in the presence of test article. The EC50 values (concentration producing a half-maximal specific response) were determined by non-linear regression analysis of the concentration-response curves.
For test [3] the target is unchanged. The test can be described thus: Arrestin Agonist Assay (DRD2L PathHunter CHO-K1 cells, β-arrestin recruitment). Conditions: for Emax: CHO-K1, read-out: β-arrestin (agonist mode) Emax.
Protocol: Cell Lines: Activities of the compounds were assessed using a Chinese Hamster Ovary (CHO—K1) cell line that recombinantly expressed the long isoform of human D2 receptor (DRD2L PathHunter cells). The D2 receptor DNA sequence was modified to contain a “ProLink” at its C-terminus which allowed complementation with an “enzyme acceptor” (EA)-tagged β-arrestin protein. The recruitment of the O-arrestin by the D2 receptor led to complementation of the ProLink and EA and formation of active β-galactosidase which generated a D2-specific signal that was measured.
Arrestin Agonist Assay: One day prior to testing, a vial of high density stock of DRD2L PathHunter cells was thawed, and 1×10^7 cells diluted into 40 mL of growth media (Ham's F12/10% HI FBS/1% PSG). 20 μL cells per well were seeded directly into assay plates, and the plates were allowed to rest for 1 h at RT before incubating in a plate incubator overnight.
5 μL diluted compound was added to cells in each well, and the assay plate was incubated for 90 min at 37° C. 12.5 μL PathHunter detection reagent was added to each well of the assay plate, which was then covered and incubated for 1 h at RT. The plate was read on an Envision reader using the Luminescence protocol, and the data were exported for analysis.
as §1

T1 sequence (P14416 whole entry, canonical isoform): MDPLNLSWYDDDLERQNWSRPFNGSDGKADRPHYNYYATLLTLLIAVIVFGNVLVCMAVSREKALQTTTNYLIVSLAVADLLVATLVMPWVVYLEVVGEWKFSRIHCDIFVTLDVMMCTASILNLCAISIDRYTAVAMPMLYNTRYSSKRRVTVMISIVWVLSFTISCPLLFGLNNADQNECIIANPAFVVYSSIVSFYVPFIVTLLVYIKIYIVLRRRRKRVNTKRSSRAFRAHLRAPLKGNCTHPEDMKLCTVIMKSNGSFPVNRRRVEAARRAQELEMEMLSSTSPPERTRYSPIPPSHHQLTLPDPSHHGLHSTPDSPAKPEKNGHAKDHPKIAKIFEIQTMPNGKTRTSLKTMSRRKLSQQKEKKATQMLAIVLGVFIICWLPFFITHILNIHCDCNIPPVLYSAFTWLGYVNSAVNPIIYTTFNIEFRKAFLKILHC

Turning to `O=c1ccc2ccc(OCCCCN3CCc4sccc4C3)nc2[nH]1` [Compound 53, 7-(4-(6,7-dihydrothieno[3,2-c]pyridin-5(4H)-yl)butoxy)-1,8-naphthyridin-2(1H)-one], in test [1], the IC50 was 10 to 100 nM and the Emax is above 75%. In test [2], the IC50 is below 10 nM and the Emax was 10 to 25%. Moreover, in test [3], the half-maximal effective concentration (EC50) is above 10000 nM and the Emax was below 10%.

As for `O=C1CCc2ccc(OCCCCN3CCc4nn(-c5ccccc5)cc4C3)cc2N1` [Compound 30, 7-(4-(2-phenyl-6,7-dihydro-2H-pyrazolo[4,3-c]pyridin-5(4H)-yl)butoxy)-3,4-dihydroquinolin-2(1H)-one], in test [1], the concentration for half-maximal inhibition (IC50) lay within 10 to 100 nM and the Emax is above 75%. Moreover, in test [2], the IC50 lay within 10 to 100 nM and the Emax was in the range of 25 to 50%. In test [3], the EC50 is below 10 nM and the Emax lay within 10 to 25%.

In the case of `O=C1NCCc2ccc(OCCCCN3CCc4c(Cl)cccc4C3)nc2N1` [Compound 88, 8-(4-(5-chloro-3,4-dihydroisoquinolin-2(1H)-yl)butoxy)-4,5-dihydro-1H-pyrido[2,3-d][1,3]diazepin-2(3H)-one], in test [1], the half-maximal inhibitory concentration (IC50) lay within 100 to 1000 nM and the Emax lay within 25 to 50%. For the same compound, in test [2], the IC50 was below 10 nM and the Emax lay in the range of 50 to 75%. In addition, in test [3], the EC50 fell in the range of 10 to 100 nM and the Emax lay in the range of 25 to 50%.

For the compound `O=c1ccc2ccc(OCCCCN3CCc4cc(C(F)(F)F)ccc4C3)nc2[nH]1` [Compound 58, 7-(4-(6-(trifluoromethyl)-3,4-dihydroisoquinolin-2(1H)-yl)butoxy)-1,8-naphthyridin-2(1H)-one], in test [1], the IC50 fell in the range of 10 to 100 nM and the Emax is above 75%. In addition, in test [2], the IC50 is below 10 nM and the Emax was 25 to 50%. Moreover, in test [3], the 50% effective concentration (EC50) was below 10 nM and the Emax lay within 10 to 25%.

On to `N#Cc1ccc2c(c1)CCN(CCCCOc1ccc3ccc(=O)[nH]c3n1)C2` [Compound 57, 2-(4-((7-oxo-7,8-dihydro-1,8-naphthyridin-2-yl)oxy)butyl)-1,2,3,4-tetrahydroisoquinoline-6-carbonitrile], for which, in test [1], the IC50 is 10 to 100 nM and the Emax is above 75%. Besides, in test [2], the IC50 was above 10000 nM and the Emax is below 10%. Also, in test [3], the concentration giving a half-maximal response (EC50) was above 10000 nM and the Emax is below 10%.

In the case of `Oc1cccc2ccc(OCCCCN3CCc4cccc(C(F)(F)F)c4C3)nc12` [Compound 21, 2-(4-(8-(trifluoromethyl)-3,4-dihydroisoquinolin-2(1H)-yl)butoxy)quinolin-8-ol], in test [1], the IC50 lay within 100 to 1000 nM and the Emax is above 75%. In test [2], the IC50 was below 10 nM and the Emax is 25 to 50%. Further, in test [3], the EC50 is above 10000 nM and the Emax was below 10%.

On to `N#Cc1cccnc1N1CCN(CCCCOc2cccc(-c3cc[nH]n3)n2)CC1` [Compound 48, 2-(4-(4-((6-(1H-pyrazol-3-yl)pyridin-2-yl)oxy)butyl)piperazin-1-yl)nicotinonitrile], for which, in test [1], the IC50 lay within 10 to 100 nM and the Emax fell in the range of 25 to 50%. In test [2], the IC50 was below 10 nM and the Emax is above 75%. Moreover, in test [3], the concentration giving a half-maximal response (EC50) was below 10 nM and the Emax was 25 to 50%.

In the case of `N#Cc1cccc2c1CCN(CCCCOc1ccc3ccc(=O)[nH]c3n1)C2` [Compound 62, 2-(4-((7-oxo-7,8-dihydro-1,8-naphthyridin-2-yl)oxy)butyl)-1,2,3,4-tetrahydroisoquinoline-5-carbonitrile], in test [1], the 50% inhibitory concentration (IC50) is above 10000 nM and the Emax was below 10%. Moreover, in test [2], the IC50 was below 10 nM and the Emax was above 75%. Also, in test [3], the 50% effective concentration (EC50) is below 10 nM and the Emax is 50 to 75%.

Take `O=C1CCc2ccc(OCCCCN3CCc4c(cnn4-c4cccc(Cl)c4)C3)cc2N1` [Compound 32, 7-(4-(1-(3-chlorophenyl)-6,7-dihydro-1H-pyrazolo[4,3-c]pyridin-5(4H)-yl)butoxy)-3,4-dihydroquinolin-2(1H)-one]: the IC50 in test [1] was below 10 nM; in test [2] it was above 10000 nM. The Emax in test [1] is above 75%; in test [2], below 10%; in test [3] it was below 10%. The same compound gave an EC50 in test [3] above 10000 nM.

For `O=C1CCc2ccc(OCCCCN3CCc4c(cccc4C(F)(F)F)C3)nc2N1` [Compound 77, 7-(4-(5-(trifluoromethyl)-3,4-dihydroisoquinolin-2(1H)-yl)butoxy)-3,4-dihydro-1,8-naphthyridin-2(1H)-one], in test [1], the IC50 is above 10000 nM and the Emax was below 10%. For the same compound, in test [2], the IC50 lay in the range of 10 to 100 nM and the Emax is 50 to 75%. In test [3], the EC50 is 100 to 1000 nM and the Emax was 50 to 75%.

As to `Clc1cccc(N2CCN(CCCCOc3ccc4cn[nH]c4n3)CC2)c1Cl` [Compound 1, 6-(4-(4-(2,3-dichlorophenyl)piperazin-1-yl)butoxy)-1H-pyrazolo[3,4-b]pyridine], in test [1], the IC50 is below 10 nM and the Emax is above 75%. Also, in test [2], the 50% inhibitory concentration (IC50) is below 10 nM and the Emax fell in the range of 25 to 50%. In test [3], the 50% effective concentration (EC50) was above 10000 nM and the Emax was below 10%.

For `O=C1CCc2ccc(OCCCCN3CCc4nn(-c5ccc(F)cc5)cc4C3)cc2N1` [Compound 37, 7-(4-(2-(4-fluorophenyl)-6,7-dihydro-2H-pyrazolo[4,3-c]pyridin-5(4H)-yl)butoxy)-3,4-dihydroquinolin-2(1H)-one], the values for the IC50 in test [1] and in test [2] were 10 to 100 nM and above 10000 nM, respectively. Also, the Emax in test [1] was above 75%; in test [2], below 10%; in test [3], below 10%. Moreover, the EC50 in test [3] is above 10000 nM.

In the case of `CCCOc1cccnc1N1CCN(CCCCOc2ccc3cccc(O)c3n2)CC1` [Compound 11, 2-(4-(4-(3-propoxypyridin-2-yl)piperazin-1-yl)butoxy)quinolin-8-ol], in test [1], the concentration for half-maximal inhibition (IC50) was in the range of 100 to 1000 nM and the Emax is above 75%. Besides, in test [2], the half-maximal inhibitory concentration (IC50) is above 10000 nM and the Emax was below 10%. Moreover, in test [3], the EC50 was above 10000 nM and the Emax is below 10%.

Consider `Oc1cccc2ccc(OCCCCN3CCc4c(Cl)cccc4C3)nc12` [Compound 20, 2-(4-(5-chloro-3,4-dihydroisoquinolin-2(1H)-yl)butoxy)quinolin-8-ol], for which, in test [1], the IC50 is above 10000 nM and the Emax was below 10%. Also, in test [2], the IC50 was 10 to 100 nM and the Emax was in the range of 50 to 75%. Also, in test [3], the concentration for a half-maximal effect (EC50) lay within 100 to 1000 nM and the Emax was above 75%.

As to `Oc1cccc2ccc(OCCCCN3CCN(c4cccc(Cl)c4Cl)CC3)nc12` [Compound 5, 2-(4-(4-(2,3-dichlorophenyl)piperazin-1-yl)butoxy)quinolin-8-ol], in test [1], the half-maximal inhibitory concentration (IC50) was in the range of 100 to 1000 nM and the Emax is above 75%. For the same compound, in test [2], the 50% inhibitory concentration (IC50) lay within 10 to 100 nM and the Emax is 25 to 50%. Further, in test [3], the EC50 was 10 to 100 nM and the Emax was in the range of 10 to 25%.

For `Oc1cccc2ccc(OCCCCN3CCc4cc(Cl)ccc4C3)nc12` [Compound 14, 2-(4-(6-chloro-3,4-dihydroisoquinolin-2(1H)-yl)butoxy)quinolin-8-ol], the results for the half-inhibitory concentration (IC50) in test [1] and in test [2] were 1000 to 10000 nM and above 10000 nM, respectively. The values for the Emax in test [1], in test [2] and in test [3] were above 75%, below 10% and below 10%, respectively. In test [3], this compound displayed an EC50 above 10000 nM.

As to `O=C1NCCc2ccc(OCCCCN3CCc4cc(F)ccc4C3)nc2N1` [Compound 84, 8-(4-(6-fluoro-3,4-dihydroisoquinolin-2(1H)-yl)butoxy)-4,5-dihydro-1H-pyrido[2,3-d][1,3]diazepin-2(3H)-one], the IC50 in test [1] is 10 to 100 nM; in test [2], above 10000 nM. Moreover, the Emax in test [1] is above 75%; in test [2], below 10%; in test [3] it was below 10%. In test [3], the concentration giving a half-maximal response (EC50) is above 10000 nM.

With `N#Cc1cccc2c1CN(CCCCOc1ccc3ccc(=O)[nH]c3n1)CC2` [Compound 64, 2-(4-((7-oxo-7,8-dihydro-1,8-naphthyridin-2-yl)oxy)butyl)-1,2,3,4-tetrahydroisoquinoline-8-carbonitrile], in test [1], the IC50 was in the range of 10 to 100 nM and the Emax is above 75%. For the same compound, in test [2], the IC50 was below 10 nM and the Emax lay in the range of 25 to 50%. For the same compound, in test [3], the concentration for a half-maximal effect (EC50) is below 10 nM and the Emax was in the range of 10 to 25%.

As to `Clc1cccc(N2CCN(CCCCOc3cccc(-c4cc[nH]n4)n3)CC2)c1Cl` [Compound 46, 1-(4-((6-(1H-pyrazol-3-yl)pyridin-2-yl)oxy)butyl)-4-(2,3-dichlorophenyl)piperazine], in test [1], the concentration for half-maximal inhibition (IC50) was below 10 nM and the Emax was 50 to 75%. In test [2], the IC50 was below 10 nM and the Emax was in the range of 50 to 75%. Besides, in test [3], the 50% effective concentration (EC50) is below 10 nM and the Emax fell in the range of 10 to 25%.

Take `COc1cccnc1N1CCN(CCCCOc2ccc3cccc(O)c3n2)CC1` [Compound 9, 2-(4-(4-(3-methoxypyridin-2-yl)piperazin-1-yl)butoxy)quinolin-8-ol]: in test [1], the IC50 is 10 to 100 nM and the Emax was above 75%. For the same compound, in test [2], the 50% inhibitory concentration (IC50) is below 10 nM and the Emax lay in the range of 25 to 50%. Further, in test [3], the 50% effective concentration (EC50) is above 10000 nM and the Emax was below 10%.

As for `CN(C)c1ncnc2c1CCN(CCCCOc1ccc3c(c1)NC(=O)CC3)C2` [Compound 29, 7-(4-(4-(dimethylamino)-5,6-dihydropyrido[3,4-d]pyrimidin-7(8H)-yl)butoxy)-3,4-dihydroquinolin-2(1H)-one], in test [1], the concentration for half-maximal inhibition (IC50) was in the range of 100 to 1000 nM and the Emax was above 75%. Also, in test [2], the IC50 lay in the range of 10 to 100 nM and the Emax was in the range of 25 to 50%. Further, in test [3], the EC50 lay within 100 to 1000 nM and the Emax was in the range of 25 to 50%.
